According to PubChem BioAssay (NCI):
Where “and” joins values, the source holds several entries; their conditions need not be identical. Identical values can stand only once.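 Exposure lasted 48 hours, with cells grown in 96-well plates and compounds tested at five concentrations. Abbreviation: GI50, concentration required for 50% inhibition of growth. Definition used: TGI = concentration required for complete inhibition of growth.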

Columns and labels:
Test in all cases: DTP human tumour cell line panel, 48 h
[1] = tested on: HCC-2998 colon
[2] = tested on: HCT-116 colon
[3] = tested on: HT29 colon
[4] = tested on: IGROV1 ovarian
[5] = tested on: MDA-MB-435
[6] = tested on: NCI-H226 lung
[7] = tested on: NCI-H460 lung
[8] = tested on: NCI-H522 lung
[9] = tested on: SK-MEL-2 melanoma
[10] = tested on: TK-10 renal

SMILES | GI50 [1] [µM] | TGI [1] [µM] | GI50 [2] [µM] | TGI [2] | GI50 [3] [µM] | TGI [3] [µM] | GI50 [4] [µM] | TGI [4] [µM] | GI50 [5] [µM] | TGI [5] [µM] | GI50 [6] [µM] | TGI [6] | GI50 [7] [µM] | TGI [7] | GI50 [8] [µM] | TGI [8] | GI50 [9] [µM] | TGI [9] | GI50 [10] [µM] | TGI [10] [µM]
C[n+]1cc2cc3c(cc2c2ccccc21)OCO3 | 3.81 | 19.2 | 3.58 | > 100 µM | 3.77 | 23 | 0.982 | 58 | 5.32 | 21 | 2.4 | 32.2 µM | 2.98 | 14.5 µM | 2.17 | 6.23 µM | 3.51 | 11.3 µM | 8.33 | 61.4
COC(=O)C1=CO[C@@H](OC2OC(CO)C(O)C(O)C2O)[C@@H]2[C@H](C)[C@@H](O)[C@@H](O)[C@]12O (some centres undefined) | – | > 100 | – | > 100 µM | – | > 100 | – | > 100 | – | > 100 | – | > 100 µM | – | – | – | > 100 µM | – | > 100 µM | – | > 100
COc1cc2c(c(OC)c1OC)C(=O)c1c-2n(CCCN=[N+]=[N-])c(=O)c2cc([N+](=O)[O-])ccc12 | > 100 | > 100 | 36.1 | > 100 µM | > 100 | > 100 | 24.3 | > 100 | > 100 | > 100 | > 100 | > 100 µM | 58.2 | > 100 µM | 16.9 | 79.3 µM | 22.8 | 70.7 µM | > 100 | > 100
O=C1Nc2ccc(CN3CCOC3=O)cc2/C1=C/c1cc(CN2CCOCC2)c[nH]1 | 61 | > 100 | 37.2 | > 100 µM | 34.6 | > 100 | 50.6 | > 100 | 18.7 | > 100 | 28.1 | > 100 µM | 36.2 | > 100 µM | 36.1 | > 100 µM | 39.2 | > 100 µM | 65.5 | > 100
CCCC(CCC)Oc1ccc(CCCC2=C(O)c3ccccc3C(=O)C2=O)cc1 | 2.8 | 10.1 | 2.17 | 13.6 µM | 6.2 | 17.9 | 4.93 | 18.5 | 4.72 | 17.6 | 4.24 | 20.8 µM | 3.03 | 11.1 µM | 5.75 | 22.2 µM | 6.85 | 28 µM | 8.03 | 21.3
O=C1c2ccccc2C(=O)c2sc(Nc3ccc(Cl)cc3)nc21 | – | 7.43 | – | 3.4 µM | – | 15.5 | – | 6.9 | 1.29 | 2.69 | – | 15.3 µM | – | 11.7 µM | – | 3.28 µM | – | 8.94 µM | – | 14.6
Cn1ccc2c3c(=O)cc[nH]c3ccc21 | > 100 | > 100 | > 100 | > 100 µM | > 100 | > 100 | > 100 | > 100 | > 100 | > 100 | > 100 | > 100 µM | > 100 | > 100 µM | > 100 | > 100 µM | > 100 | > 100 µM | > 100 | > 100
Cc1cc(S(=O)(=O)Nc2nc3ccccc3[nH]2)c(SCc2ccccc2)cc1Cl | 21.4 | > 100 | 51.6 | > 100 µM | – | – | 82 | > 100 | > 100 | > 100 | 43.8 | > 100 µM | > 100 | > 100 µM | > 100 | > 100 µM | > 100 | > 100 µM | 38 | > 100
c1ccc2c(-c3cnn4cc(-c5ccc(N6CCNCC6)cc5)cnc34)ccnc2c1 | 1.36 | 2.74 | 0.313 | 1.19 µM | 0.547 | 1.91 | 0.801 | 2.23 | 0.556 | 1.91 | 1.65 | 3.59 µM | 0.216 | 0.525 µM | 1.5 | 2.9 µM | 1.57 | 2.98 µM | 1.76 | 3.2
O=C(c1ccccc1)c1ccc(O)c2ncccc12 | 16.7 | 41.1 | 2.62 | 10.3 µM | 10.1 | > 100 | 2.4 | 11.9 | 6.13 | 97.5 | 9.45 | 41.8 µM | 1.75 | 16.2 µM | 2.51 | 8.3 µM | 12 | 43.3 µM | 6.99 | > 100
CNC(C)[C@H]1CCC2C3CCC4C[C@@H](N(C)C(=O)c5ccccc5)CC[C@]4(C)C3CC[C@@]21C (some centres undefined) | 1.63 | 4.8 | 0.409 | 1.73 µM | 0.291 | 1.23 | 1.96 | 7.73 | 0.632 | 2.42 | 2.01 | 12.9 µM | 0.732 | 2.33 µM | 2.32 | 8.5 µM | 2.6 | 5.4 µM | 2.16 | 7.83
COc1ccc(C2CC(c3cccc(OC)c3)=NN2C(=O)c2cc(OC)c(OC)c(OC)c2)cc1 (centres undefined) | 4.27 | > 100 | 1.43 | > 100 µM | 0.507 | > 100 | 1.49 | > 100 | 0.307 | 1.71 | – | > 100 µM | 1.75 | > 100 µM | 2.66 | > 22.1 µM | 10.3 | > 100 µM | – | > 100
Cc1[nH]c(=O)nc(N/N=C/c2ccc(Cl)cc2)c1C(=O)Nc1ccc(Cl)cc1 | – | > 100 | – | 17.1 µM | – | > 100 | – | > 100 | – | > 100 | – | > 100 µM | – | 39.7 µM | – | 64.1 µM | – | > 100 µM | – | 56.9
Nc1cc(N)cc(Cc2ccccc2)c1 | – | > 100 | – | > 100 µM | – | > 100 | – | > 100 | – | > 100 | – | > 100 µM | – | > 100 µM | – | > 100 µM | – | > 100 µM | – | > 100
O=C(O)c1cc2cc(O)ccc2[nH]1 | > 100 | > 100 | > 100 | > 100 µM | > 100 | > 100 | > 100 | > 100 | > 100 | > 100 | > 100 | > 100 µM | > 100 | > 100 µM | > 100 | > 100 µM | > 100 | > 100 µM | > 100 | > 100
COc1ccc(C2SCC(=O)N2NC(=O)C(O)c2ccccc2)cc1 (centres undefined) | > 100 | > 100 | > 100 | > 100 µM | > 100 | > 100 | > 100 | > 100 | > 100 | > 100 | > 100 | > 100 µM | > 100 | > 100 µM | > 100 | > 100 µM | > 100 | > 100 µM | > 100 | > 100
Clc1ccc(-c2nc(C(Cl)Cl)nc3cc(-c4ccccc4)nn23)cc1 | 0.741 | 1.42 | 1.67 | > 50 µM | 0.751 | > 50 | 2.4 | > 50 | 1.8 | > 50 | > 50 | > 50 µM | 0.787 | 2.15 µM | 1.52 | > 50 µM | > 50 | > 50 µM | 2.23 | > 50
CCOC(=O)Nc1ccc(C(=O)/C=C/c2ccccc2)cc1 | 17.1 | 31.6 | 3.31 | 11.4 µM | 10.1 | > 100 | 19.3 | > 100 | 5.13 | > 100 | 19.8 | 68.6 µM | 28.9 | > 100 µM | 20.9 | 79.8 µM | 25.9 | 69.7 µM | 28.9 | 86.5
CC(=O)[O][Hg][CH2]C1(C)COC(C)([CH2][Hg][O]C(C)=O)CO1 (centres undefined) | 15.7 | 30.2 | 1.22 | 6.58 µM | 6.67 | > 59.2 | 2.35 | 7.12 | 2.72 | 7.18 | 6.16 | 14.2 µM | 15.7 | 40.4 µM | 12.1 | 33 µM | 4.31 | 16.4 µM | 2.29 | 6.2
CC(C)C[C@H]1C(=O)N2CCC[C@H]2[C@]2(O)O[C@](NC(=O)[C@@H]3C=C4c5cccc6[nH]c(Br)c(c56)C[C@H]4N(C)C3)(C(C)C)C(=O)N12 | – | > 100 | – | > 100 µM | – | > 100 | – | > 100 | – | > 100 | – | > 100 µM | – | > 100 µM | – | > 100 µM | – | > 100 µM | – | > 100
Cc1cccc2c(N=Nc3ccccc3[N+](=O)[O-])c(O)[nH]c12 | – | > 31.6 | – | 34 µM | – | > 52.7 | – | > 50.5 | – | > 100 | – | > 39.7 µM | – | 30.6 µM | – | 2.85 µM | – | > 71.1 µM | – | 16.9
CN(N=O)C(=O)Nc1ccc(C(=O)O)cc1 | – | > 100 | – | > 100 µM | – | > 100 | – | > 100 | – | > 100 | – | > 100 µM | – | > 100 µM | – | > 100 µM | – | > 100 µM | – | > 100
COc1ccc(Nc2ncc(-c3ccccc3)o2)cc1OC | > 25 | > 25 | 9.37 | > 25 µM | 16.3 | > 25 | > 17.1 | > 25 | > 19.5 | > 25 | > 20.6 | > 25 µM | 13.4 | > 25 µM | 9.33 | > 25 µM | 18.4 | > 25 µM | 6.07 | > 25
C=C1C(=O)O[C@H]2[C@H]1CC/C(COC(=O)C(=O)c1c[nH]c3ccc(Cl)cc13)=C\CC[C@@]1(C)O[C@@H]21 | 1.8 | 3.36 | 1.65 | 3.23 µM | 0.781 | 3.01 | 1.63 | 3.32 | 1.8 | 4.23 | 1.74 | 3.31 µM | 2.45 | 5.93 µM | 1.53 | 3.24 µM | 1.94 | 4.23 µM | 1.73 | 3.2
N#CSCC1CC(O)(c2ccccc2)CC(c2ccc(Cl)cc2)O1 (centres undefined) | 8.56 | 21.5 | 1.62 | 3.1 µM | 3.44 | 8.74 | 2.75 | 7.72 | 1.9 | 4.8 | 5.79 | 35.6 µM | 2.33 | 6.38 µM | 1.36 | 2.83 µM | 1.89 | 3.78 µM | 2.13 | 4.33
CC(=O)Oc1ccccc1C(=O)NCCC[Se]C#N | 3.54 | 14.9 | 1.87 | 5.03 µM | 3.51 | 11.2 | 2.24 | 11.2 | 2.19 | 5.16 | 2.06 | 5.62 µM | 1.69 | 4.52 µM | 1.62 | 3.5 µM | 2.55 | 5.64 µM | 1.83 | 3.82
COc1cc2oc(-c3cccc(C(=O)Nc4ccc(C)cc4)c3)cc(=O)c2c(OC)c1OC | 3.53 | 17.8 | 2.21 | 21.8 µM | 2.55 | > 100 | 2.99 | > 100 | 2.26 | 7.64 | 6.65 | > 100 µM | 1.47 | > 100 µM | 2.67 | 9.31 µM | 3.33 | 9.55 µM | 6.89 | > 100
COc1cccc2c1C(=O)c1c(O)c3c(c(O)c1C2=O)C[C@@](O)(C(C)=O)C[C@@H]3OC1CC(O)C(O)C(C)O1 (some centres undefined) | – | 12.8 | – | 3.54 µM and 3.82 µM | – | – | – | – | – | 27.7 | – | 4.77 µM and 1.58 µM | – | 2.73 µM and 5.19 µM | – | 9.44 µM and 7.38 µM | – | 9.44 µM and 15.2 µM | – | 81.3
